These results are taken from patent publication US20190281845A1, “EDIBLE BIO-ACTIVE FILMS BASED ON CHITOSAN OR A MIXTURE OF QUINOA PROTEIN-CHITOSAN; SHEETS HAVING CHITOSAN-TRIPOLYPHOSPHATE-THYMOL NANOPARTICLES; PRODUCTION METHOD; BIO-PACKAGING COMPRISING SAME; AND USE THEREOF IN FRESH FRUIT WITH A LOW PH” (Universidad de Chile, priority 2016, published 2019).

Molecules are shown by their SMILES.

The test system of experiment [1] is A. niger. Particulars: Guarda et al., 2011; cited from earlier work.
For experiment [2], the system named is B. cinerea mycelium. Briefly: Inhibition of Botrytis cinerea mycelium (radial growth on agar). In kind it is cell-based. Particulars: for Radial mycelial growth area: 6 days at 25° C., untreated 8.5 cm^2. As to the method:
The antifungal activity of the NQoT dispersion was evaluated by inhibiting the radial development in the fungus mycelial plate, described by Yildirim et al., (2007). For that purpose, a portion of mycelium was sterilely taken, using a punch, from a strain previously cultivated for 5 days at 25° C., which was placed in the center of a potato dextrose agar plate mixed with dilutions of the NQoT dispersion until obtaining in the agar concentrations of 0.44 mg/ml (dispersion diluted to 10% v/v), 1.1 mg/ml (dispersion diluted to 25% v/v) and 2.2 mg/ml (dispersion diluted to 50% v/v). These plates were incubated for 6 days at 25° C., being evaluated every 24 h. The antifungal activity was determined through the mycelium propagation area of the plates containing NQoT, and were compared with agar plates containing T solutions, mixture of QoLMW-T, and the NQo dispersion in the same dilutions, and a culture of the fungus seeded in a plate without treatment, whose propagation on the surface of the plate (8.5 cm2) is equivalent to a 100% development, which was used as a parameter of growth comparison.
On the other hand, the antifungal capacity of the NQoTs confronted to the vegetative form of Botrytis cinerea was tested, wherein the growth inhibition of this fungus' mycelium was assessed, adding diluted concentrations to the culture medium of the NQoT dispersion. The dilutions tested corresponded to 10%, 25% and 50% v/v, and were compared to T's solutions, QoLMW-T mixture, and NQo dispersion in the same dilutions.
It was observed, when the culture medium lacked the solutions or dispersions to be tested (viability control), that the fungus spread over the surface of the plate (8.5 cm^2), equivalent to 100% growth, which was used as a growth comparison parameter.

The subject of experiment [3] is S. cereviciae. As to conditions: Guarda et al., 2011; cited from earlier work.
The subject of experiment [4] is P. aeruginosa. Kind of experiment: Minimum inhibitory concentration in liquid culture (serial dilutions, turbidity). The class given is cell-based, Pseudomonas aeruginosa ATCC 27853. Particulars: Ps. aeruginosa; 24 h. On the procedure:
(§1) To evaluate the antimicrobial capacity of the ink prepared from the NQoT dispersion, the minimum concentration that is able to inhibit the visible development of the bacterial strains S. aureus; E. coli; P. aeruginosa; S. typhimurium; E. aerogenes and L. innocua in a liquid culture medium (trypticase soy broth), after 24 h incubation, was determined. Bacterial strains were obtained from an isolated colony on a selective and differential agar plate for each genus, and were inoculated in nutritious broth for 24 h at 37° C. with stirring until obtaining a saturated culture. Then, the desired concentration of microorganisms was determined, in comparison with the standard of McFarland 0.5, and the corresponding dilutions were made in order to reach a concentration of 1×10^5 CFU/ml (colony-forming units/ml). To each culture tube, agents in serial dilutions were added, and incubated at 37° C. for 24 h; then, the lowest concentration of the mixture capable of inhibiting bacterial growth, given by absence of turbidity in the culture medium, was determined. The solutions used to generate the Nps and nanoparticles without T in their formulation (NQo) were used as controls. […]

Experiment [5] deals with S. aureus. As to conditions: Guarda et al., 2011; cited from earlier work.
Experiment [6] has as its system S. typhimurium. Briefly: Minimum inhibitory concentration in liquid culture (serial dilutions, turbidity). The class given is cell-based, Salmonella serovar Typhimurium ATCC 14028. Particulars: S. Tiphymurium; 24 h. As to the method: as §1
The test system of experiment [7] is S. aureus. Described as above. In kind it is cell-based, Staphylococcus aureus ATCC 25923. Particulars: 24 h. On the procedure: as §1
For experiment [8], the system named is B. cinerea. Briefly: Minimum inhibitory concentration against the fungus. In kind it is cell-based, Botrytis cinerea wt.
The test system of experiment [9] is E. coli. Kind of experiment: Minimum inhibitory concentration in liquid culture (serial dilutions, turbidity). In kind it is cell-based, Escherichia coli ATCC 25922. As to conditions: 24 h. On the procedure:
as §1

Experiment [10] concerns L. innocua. The description is as above. In kind it is cell-based, Listeria innocua ATCC 33090. Particulars: 24 h. As to the method:
as §1

The test system of experiment [11] is E. aerogenes. The description is as above. The class given is cell-based, Enterobacter aerogenes ATCC 13048. Particulars: 24 h. On the procedure:
as §1

In experiment [12] the test system is E. coli. As to conditions: Guarda et al., 2011; cited from earlier work.
The subject of experiment [13] is Listeria innocua. Particulars: Guarda et al., 2011; cited from earlier work.
The mark [14] stands for this setting: agent diluted to 10% v/v in culture medium.
The mark [15] stands for this setting: agent diluted to 25% v/v in culture medium.

As for `Cc1ccc(C(C)C)c(O)c1` [thymol], the “Minimum inhibitory concentration (MIC)” value in experiment [1] was 250 ppm; in experiment [3], 125 ppm; in experiment [5], 250 ppm; in experiment [12] it was 250 ppm; in experiment [13], 250 ppm. The “Inhibition of mycelial growth versus viability control” value is recorded as 4.7% in experiment [2] (setting [14]) and 20% in experiment [2] (setting [15]). In addition, the “Radial mycelial growth area” value stood at 8.1±0.1 cm^2 in experiment [2] (setting [14]) and 6.8±0.8 cm^2 in experiment [2] (setting [15]). The Minimum inhibitory concentration in [4] is reported as 0.225 gL^−1; in experiment [6], 0.250 gL^−1; in [7], 0.275 gL^−1; in experiment [8] it was 0.550 gL^−1; in [9], 0.250 gL^−1; in experiment [10], 0.275 gL^−1. This molecule showed a Minimum inhibitory concentration in experiment [11] of 0.250 gL^−1.
